# Patent US20230407243A1, “GENETIC PLATFORM TO INVESTIGATE THE FUNCTIONS OF BACTERIAL DRUG EFFLUX PUMPS” (priority 2022, published 2023)
# Like-named read-outs stand apart in the source and are kept apart here.
# What was measured:
# Type in all cases: cell-based, Escherichia coli
# wild-type (WT) K-12-Pore = assay: microbe, parasite or virus in culture; conditions: technical duplicate; for MIC: Escherichia coli
# In short: (§1)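 E. coli strains carrying a genomically integrated constitutive fhuA ΔC/Δ4L pore were grown 18 h in LB at 37 °C, then diluted 1/2000 in MHB II from OD600 ~1.0. Compounds were tested in duplicate, 2-fold serial titration, for 18 h at 37 °C with shaking. MIC came from OD600 with the pre-incubation background subtracted.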
# ΔtolC-Pore = assay: microbe, parasite or virus in culture; conditions: for Minimum inhibitory concentration (MIC), Pore ΔtolC: Table 10, with pore
# In short: as §1
# EKO-35 araC::emrAB = assay: MIC susceptibility profiling, efflux platform; conditions: for Fold change of MICs: EKO-35 araC::emrAB compared to EKO-35
# In short: (§2)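 OD600 read-out, background-corrected, after 18 h at 37 °C with shaking. Compounds were tested in duplicate as 2-fold series in MHB II, with DMSO as solvent control. Inoculum was a 1/2000 dilution of an OD600 ~1.0 PBS suspension.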
# EKO-35 araC::acrBD408A = assay: MIC susceptibility profiling, efflux platform; conditions: for Fold change of MICs: EKO-35 araC::acrBD408A compared to EKO-35
# In short: as §2
# EKO-35 araC::mdtEF = assay: MIC susceptibility profiling, efflux platform; conditions: for Fold change of MICs: EKO-35 araC::mdtEF compared to EKO-35
# In short: as §2
# EKO-35 araC::acrEF = assay: MIC susceptibility profiling, efflux platform; conditions: for Fold change of MICs: EKO-35 araC::acrEF compared to EKO-35
# In short: as §2
# EKO-35 araC::macAB = assay: MIC susceptibility profiling, efflux platform; conditions: for Fold change of MICs: EKO-35 araC::macAB compared to EKO-35
# In short: as §2
# EKO-35 araC::emrKY = assay: MIC susceptibility profiling, efflux platform; conditions: for Fold change of MICs: EKO-35 araC::emrKY compared to EKO-35
# In short: as §2
# EKO-35 araC::emrKY Pore = assay: MIC susceptibility profiling, porinated efflux platform; conditions: for Fold changes of MICs: EKO-35 araC::emrKY Pore compared to EKO-35-Pore
# In short: as §1
# EKO-35 araC::mexCD Pore = assay: as above; conditions: for Fold changes of MICs: EKO-35 araC::mexCD Pore compared to EKO-35-Pore
# In short: as §1
# EKO-35 araC::mdtEF Pore = assay: as above; conditions: for Fold changes of MICs: EKO-35 araC::mdtEF Pore compared to EKO-35-Pore
# In short: as §1
# EKO-35 araC::mdtBC Pore = assay: as above; conditions: for Fold changes of MICs: EKO-35 araC::mdtBC Pore compared to EKO-35-Pore
# In short: as §1
# EKO-35 araC::acrD Pore = assay: as above; conditions: for Fold changes of MICs: EKO-35 araC::acrD Pore compared to EKO-35-Pore
# In short: as §1
# EKO-35 araC::acrB Pore = assay: as above; conditions: for Fold changes of MICs: EKO-35 araC::acr-B Pore compared to EKO-35-Pore
# In short: as §1
# [1] = tested on: EKO-35 araC::acrBD408A Pore; assay: as above; conditions: for Fold changes of MICs: EKO-35 araC::acrBD408A Pore compared to EKO-35-Pore
# In short: as §1
# EKO-35 araC::macAB Pore = assay: as above; conditions: for Fold changes of MICs: EKO-35 araC::macAB Pore compared to EKO-35-Pore
# In short: as §1
# EKO-35 araC::acrEF Pore = assay: as above; conditions: for Fold changes of MICs: EKO-35 araC::acrEF Pore compared to EKO-35-Pore
# In short: as §1
# EKO-35 araC::emrAB Pore = assay: as above; conditions: for Fold changes of MICs: EKO-35 araC::emrAB Pore compared to EKO-35-Pore
# In short: as §1
# [2] = Table 14A, porinated, technical duplicate
# [3] = Table 13B, non-porinated, technical duplicate
# [4] = Table 13A, non-porinated, technical duplicate
smiles,measurement,setting,value
O=C(Nc1ccc(C(F)(F)F)cc1)Nc1ccc(C(F)(F)F)cc1 [compound 7],"Minimum inhibitory concentration (MIC), Pore K-12","wild-type (WT) K-12-Pore; Table 10, with pore",320 µg/mL
same,"Minimum inhibitory concentration, K-12 (WT)-Pore","wild-type (WT) K-12-Pore; Table 14A, porinated",320 µg/mL
same,"Minimum inhibitory concentration (MIC), Pore ΔtolC",ΔtolC-Pore; technical duplicate,0.313 µg/mL
same,"Minimum inhibitory concentration, ΔtolC-Pore",ΔtolC-Pore; [2],0.313 µg/mL
same,Fold change of MICs,EKO-35 araC::emrAB,1 fold
same,"Minimum Inhibitory Concentration, EKO-35 araC::emrAB",EKO-35 araC::emrAB; [3],320 µg/mL
same,Fold change of MICs,EKO-35 araC::acrBD408A,1 fold
same,"Minimum Inhibitory Concentration, EKO-35 araC::acrBD408A",EKO-35 araC::acrBD408A; [3],320 µg/mL
same,Fold change of MICs,EKO-35 araC::mdtEF,1 fold
same,"Minimum Inhibitory Concentration, EKO-35 araC::mdtEF",EKO-35 araC::mdtEF; [4],320 µg/mL
same,Fold change of MICs,EKO-35 araC::acrEF,1 fold
same,"Minimum Inhibitory Concentration, EKO-35 araC::acrEF",EKO-35 araC::acrEF; [4],320 µg/mL
same,Fold change of MICs,EKO-35 araC::macAB,1 fold
same,"Minimum Inhibitory Concentration, EKO-35 araC::macAB",EKO-35 araC::macAB; [3],320 µg/mL
same,Fold change of MICs,EKO-35 araC::emrKY,1 fold
same,"Minimum Inhibitory Concentration, EKO-35 araC::emrKY",EKO-35 araC::emrKY; [3],320 µg/mL
same,Fold changes of MICs,EKO-35 araC::emrKY Pore,1 fold
same,Minimum inhibitory concentration,"EKO-35 araC::emrKY Pore; EKO-35 araC::emrKY Pore, technical duplicate",320 µg/mL
same,Fold changes of MICs,EKO-35 araC::mexCD Pore,1 fold
same,Minimum inhibitory concentration,"EKO-35 araC::mexCD Pore; EKO-35 araC::mexCD Pore, technical duplicate",320 µg/mL
same,Fold changes of MICs,EKO-35 araC::mdtEF Pore,1 fold
same,"Minimum inhibitory concentration, EKO-35 araC::mdtEF Pore",EKO-35 araC::mdtEF Pore; [2],320 µg/mL
same,Fold changes of MICs,EKO-35 araC::mdtBC Pore,1 fold
same,Minimum inhibitory concentration,"EKO-35 araC::mdtBC Pore; EKO-35 araC::mdtBC Pore, technical duplicate",320 µg/mL
same,Fold changes of MICs,EKO-35 araC::acrD Pore,1 fold
same,"Minimum inhibitory concentration, EKO-35 araC::acrD Pore",EKO-35 araC::acrD Pore; [2],320 µg/mL
same,Fold changes of MICs,EKO-35 araC::acrB Pore,1 fold
same,"Minimum inhibitory concentration, EKO-35 araC::acrB Pore",EKO-35 araC::acrB Pore; [2],320 µg/mL
same,Fold changes of MICs,[1],1 fold
same,Minimum inhibitory concentration,"[1]; EKO-35 araC::acrBD408A Pore, technical duplicate",320 µg/mL
same,Fold changes of MICs,EKO-35 araC::macAB Pore,1 fold
same,Minimum inhibitory concentration,"EKO-35 araC::macAB Pore; EKO-35 araC::macAB Pore, technical duplicate",320 µg/mL
same,Fold changes of MICs,EKO-35 araC::acrEF Pore,1 fold
same,"Minimum inhibitory concentration, EKO-35 araC::acrEF Pore",EKO-35 araC::acrEF Pore; [2],320 µg/mL
same,Fold changes of MICs,EKO-35 araC::emrAB Pore,1 fold
same,Minimum inhibitory concentration,"EKO-35 araC::emrAB Pore; EKO-35 araC::emrAB Pore, technical duplicate",320 µg/mL
CCn1cc(C(=O)O)c(=O)c2ccc(C)nc21 [nalidixic acid],MIC,"wild-type (WT) K-12-Pore; Table 10, with pore, read-out: Minimum inhibitory concentration (MIC), Pore K-12",5 µg/mL
same,MIC,"wild-type (WT) K-12-Pore; Table 14A, porinated, read-out: Minimum inhibitory concentration, K-12 (WT)-Pore",5 µg/mL
same,MIC,"ΔtolC-Pore; Escherichia coli, 18 h, read-out: Minimum inhibitory concentration, ΔtolC-Pore",1.25 µg/mL
same,"Minimum inhibitory concentration (MIC), Pore ΔtolC",ΔtolC-Pore; technical duplicate,1.25 µg/mL
same,Fold change of MICs,EKO-35 araC::emrAB,8 fold
same,MIC,"EKO-35 araC::emrAB; Escherichia coli, Table 13B, non-porinated, technical duplicate, read-out: Minimum Inhibitory Concentration, EKO-35 araC::emrAB",10 µg/mL
same,Fold change of MICs,EKO-35 araC::acrBD408A,1 fold
same,MIC,"EKO-35 araC::acrBD408A; Escherichia coli, Table 13B, non-porinated, technical duplicate, read-out: Minimum Inhibitory Concentration, EKO-35 araC::acrBD408A",1.25 µg/mL
same,Fold change of MICs,EKO-35 araC::mdtEF,1 fold
same,MIC,"EKO-35 araC::mdtEF; Escherichia coli, Table 13A, non-porinated, technical duplicate, read-out: Minimum Inhibitory Concentration, EKO-35 araC::mdtEF",1.25 µg/mL
same,Fold change of MICs,EKO-35 araC::acrEF,4 fold
same,Fold change of MICs,EKO-35 araC::macAB,1 fold
same,MIC,"EKO-35 araC::macAB; Escherichia coli, Table 13B, non-porinated, technical duplicate, read-out: Minimum Inhibitory Concentration, EKO-35 araC::macAB",1.25 µg/mL
same,Fold change of MICs,EKO-35 araC::emrKY,1 fold
same,MIC,"EKO-35 araC::emrKY; Escherichia coli, Table 13B, non-porinated, technical duplicate, read-out: Minimum Inhibitory Concentration, EKO-35 araC::emrKY",1.25 µg/mL
same,Fold changes of MICs,EKO-35 araC::emrKY Pore,1 fold
same,MIC,"EKO-35 araC::emrKY Pore; Escherichia coli, EKO-35 araC::emrKY Pore, technical duplicate, read-out: Minimum inhibitory concentration",1.25 µg/mL
same,Fold changes of MICs,EKO-35 araC::mexCD Pore,2 fold
same,MIC,"EKO-35 araC::mexCD Pore; Escherichia coli, EKO-35 araC::mexCD Pore, technical duplicate, read-out: Minimum inhibitory concentration",2.5 µg/mL
same,Fold changes of MICs,EKO-35 araC::mdtEF Pore,1 fold
same,MIC,"EKO-35 araC::mdtEF Pore; Escherichia coli, Table 14A, porinated, technical duplicate, read-out: Minimum inhibitory concentration, EKO-35 araC::mdtEF Pore",1.25 µg/mL
same,Fold changes of MICs,EKO-35 araC::mdtBC Pore,1 fold
same,MIC,"EKO-35 araC::mdtBC Pore; Escherichia coli, EKO-35 araC::mdtBC Pore, technical duplicate, read-out: Minimum inhibitory concentration",1.25 µg/mL
same,Fold changes of MICs,EKO-35 araC::acrD Pore,1 fold
same,MIC,"EKO-35 araC::acrD Pore; Escherichia coli, Table 14A, porinated, technical duplicate, read-out: Minimum inhibitory concentration, EKO-35 araC::acrD Pore",1.25 µg/mL
same,Fold changes of MICs,EKO-35 araC::acrB Pore,8 fold
same,MIC,"EKO-35 araC::acrB Pore; Escherichia coli, Table 14A, porinated, technical duplicate, read-out: Minimum inhibitory concentration, EKO-35 araC::acrB Pore",10 µg/mL
same,Fold changes of MICs,[1],1 fold
same,MIC,"[1]; Escherichia coli, EKO-35 araC::acrBD408A Pore, technical duplicate, read-out: Minimum inhibitory concentration",1.25 µg/mL
same,Fold changes of MICs,EKO-35 araC::macAB Pore,1 fold
same,MIC,"EKO-35 araC::macAB Pore; Escherichia coli, EKO-35 araC::macAB Pore, technical duplicate, read-out: Minimum inhibitory concentration",1.25 µg/mL
same,efflux pump-mediated resistance vs EKO-35-Pore,EKO-35 araC::acrEF Pore; AcrEF with the pore,impacted the ability of AcrEF to confer resistance
same,Fold changes of MICs,EKO-35 araC::acrEF Pore,2 fold
same,MIC,"EKO-35 araC::acrEF Pore; Escherichia coli, Table 14A, porinated, technical duplicate, read-out: Minimum inhibitory concentration, EKO-35 araC::acrEF Pore",2.5 µg/mL
same,Fold changes of MICs,EKO-35 araC::emrAB Pore,8 fold
same,MIC,"EKO-35 araC::emrAB Pore; Escherichia coli, EKO-35 araC::emrAB Pore, technical duplicate, read-out: Minimum inhibitory concentration",10 µg/mL
